# Test results from patent publication US20230365617A1, “SAPONIN DERIVATIVES FOR USE IN MEDICINE” (priority 2020, published 2023).
# Where two headings read alike, the source gives them in different places.
# Columns and labels:
# [1] = tested on: HeLa cells; assay: Pilot cell killing bioassay, saponin with or without 1.5 pM dianthin-EGF, 72 h; type: cell-based, human; design: key: Cell killing activity (+ or -); Cell killing activity (+ or -)
# Experimental: HeLa cells were incubated for 72 h with the following constructs and cell viability before and after the 72 h-incubation was assessed. In the experiments, cells were exposed to 1.5 pM dianthin-EGF conjugate. A negative control were cells incubated with buffer vehicle and 10 microgram/ml saponin, without dianthin-EGF. Cell viability was set to 100% for the control in which both saponin and EGF-dianthin were omitted. […] Cell viability after 72 h was essentially 0%. For the chemically modified saponin variants, 10 microgram/ml saponin was tested in combination with 1.5 pM dianthin-EGF.
# [2] = tested on: A431 cells (EGFR expressing); assay: Cell viability, saponin titration with or without […] EGFdianthin; type: cell-based, human
# [3] = Critical micellar concentration (CMC) by ANS fluorescence; type: physicochemical; conditions: for CMC compared with the corresponding native/underivatised saponin: qualitative
# Experimental: The critical micellar concentration (CMC) of saponins derived from Saponaria officinalis (SO) (Table A7) and derived from Quillaja saponaria (QS) (Table A8, and Table A9) was determined by the method of DeVendittis et al. (A fluorimetric method for the estimation of the critical micelle concentration of surfactants, Analytical Biochemistry, Volume 115, Issue 2, August 1981, Pages 278-286) as follows:
# The emission spectrum of 8-Anilinonaphthalene-1-sulfonic acid (ANS) in either purified water (MQ) or PBS (Dulbecco’s PBS +/+) was determined at dry weight concentrations of saponins ranging from 1 to 1400 µM to cover the range below and above the CMC. Above the CMC, the fluorescence yield of ANS increases and the wavelength of maximum emission decreases due to portioning of the fluorescent dye into micelles. Fluorescence yields were recorded on a Fluoroskan Ascent FL (Thermo Scientific) at an excitation wavelength of 355 nm, and an emission wavelength of 460 nm. 6 µg at a concentration of 75.86 µM of ANS were used per sample and measurement.
# The critical micellar concentration (CMC) of saponins was determined by the method of DeVendittis et al. (A fluorimetric method for the estimation of the critical micelle concentration of surfactants, Analytical Biochemistry, Volume 115, Issue 2, August 1981, Pages 278-286) as follows: […]
# [4] = tested on: A2058 cells (EGFR non-expressing); assay: Cell viability, saponin titration with or without […] EGFdianthin; type: cell-based, human; conditions: saponin as single compound
# [5] = tested on: human red blood cells; assay: cells; type: cell-based; conditions: Erythrocyte
# Experimental: (§1) Cells were pelleted by centrifugation for 10 min, 800xg at RT.
# [6] = tested on: HeLa cells; assay: cells; type: cell-based, human
# Experimental: (§2) (FIGS. 66A and 66B). Next toxicity was determined, for this the modified saponins were titrated on HeLa and A431 cells. […] Next toxicity was determined, for this the modified saponins were titrated on HeLa and A431 cells.
# [7] = in vitro; type: cell-based, human; conditions: human red blood cells; read-out: IC50 hemolytic activity
# Experimental: as §1
# [8] = tested on: A431 cells; assay: cells; type: cell-based; conditions: Homo sapiens, A-431, saponin alone, read-out: IC50 toxicity on A431 cells
# Experimental: as §2
# [9] = 10 µg/ml SO1861 or SO1861-derivative alone
# [10] = SO saponins, determined in PBS (Table A7)
# [11] = 10 µg/ml SO1861 or SO1861-derivative + […] EGFdianthin
# [12] = HeLa cells, saponin alone (Table A5), read-out: IC50 nM (Toxicity)
# [13] = SO1831 and Aescin, determined in PBS (Table A11)
molecule,measurement,setting,value
CC(=O)OC1C(C)OC(OC2C(C)OC(OC(=O)C34CCC(C)(C)CC3C3=CCC5C6(C)CCC(OC7OC(C(=O)O)C(O)C(OC8OCC(O)C(O)C8O)C7OC7OC(CO)C(O)C(O)C7O)C(C)(C=NNC(=O)CCOCCOCCOCCOCCN=[N+]=[N-])C6CCC5(C)C3(C)CC4O)C(OC3OC(C)C(OC4OCC(O)C(OC5OC(CO)C(O)C(O)C5O)C4O)C(O)C3O)C2O)C(O)C1OC1OCC(O)C(O)C1O (stereo not shown),Cell killing activity (+ or -),[1]; [9],-
same,IC50,"[2]; read-out: general toxicity in absence of EGFdianthin, saponin as single compound",> 10 µM
CC(=O)OC1C(C)OC(OC2C(C)OC(OC(=O)[C@]34CCC(C)(C)CC3C3=CCC5[C@@]6(C)CC[C@H](OC7OC(C(=O)NCCN8C(=O)C=CC8=O)C(O)C(OC8OCC(O)C(O)C8O)C7OC7OC(CO)C(O)C(O)C7O)[C@@](C)(CO)C6CC[C@@]5(C)[C@]3(C)C[C@H]4O)C(OC3OC(C)C(OC4OCC(O)C(OC5OC(CO)C(O)C(O)C5O)C4O)C(O)C3O)C2O)C(O)C1OC1OCC(O)C(O)C1O (stereo partly shown) [SO1861-(Glu-AEM)-(Ald-OH)],CMC,[3]; [10],90 ± 10 µM
same,CMC compared with the corresponding native/underivatised saponin,[3],lower CMC values
"CC(=O)OC1C(C)OC(OC2C(C)OC(OC(=O)[C@]34CCC(C)(C)CC3C3=CCC5[C@@]6(C)CC[C@H](OC7OC(C(=O)O)C(O)C(OC8OCC(O)C(O)C8O)C7OC7OC(CO)C(O)C(O)C7O)[C@@](C)(C=O)C6CC[C@@]5(C)[C@]3(C)C[C@H]4O)C(OC3OC(C)C(OC4OCC(O)C(OC5OC(CO)C(O)C(O)C5O)C4O)C(O)C3O)C2O)C(O)C1OC1OCC(O)C(O)C1O (stereo partly shown) [SO1861, reference compound]",CMC,[3]; SO1861 saponins,185 µM
same,CMC,[3]; [10],185 ± 19 µM
same,general toxicity in absence of EGFdianthin,[4],strong cell viability reduction
same,Cell killing activity (+ or -),[1]; [11],+
same,Cell killing activity (+ or -),[1]; [9],-
same,general toxicity in absence of EGFdianthin,[2]; saponin as single compound,strong cell viability reduction
CC[C@H](C)[C@H](C[C@H](O)CC(=O)OC1C(C)OC(OC(=O)[C@]23CCC(C)(C)CC2C2=CCC4[C@@]5(C)CC[C@H](OC6OC(C(=O)O)C(O)C(OC7OCC(O)C(O)C7O)C6OC6OC(CO)C(O)C(O)C6O)[C@@](C)(/C=N/NC(=O)CCCCCN6C(=O)C=CC6=O)C5CC[C@@]4(C)[C@]2(C)C[C@H]3O)C(OC2OC(C)C(OC3OCC(O)C(OC4OCC(O)(CO)C4O)C3O)C(O)C2O)C1O)OC(=O)C[C@@H](O)C[C@H](OC1OC(CO)C(O)C1O)[C@@H](C)CC (stereo partly shown) [QS21-Ald-EMCH],IC50,"[5]; Homo sapiens, read-out: IC50 hemolytic activity, human red blood cells",30000 nM
same,IC50,"[6]; Homo sapiens, HeLa, read-out: IC50 nM (Toxicity), HeLa cells (Table A12, Example 8)",> 30000 nM
CC(=O)OC1C(C)OC(OC2C(C)OC(OC(=O)[C@]34CCC(C)(C)CC3C3=CCC5[C@@]6(C)CC[C@H](OC7OC(C(=O)O)C(O)C(OC8OCC(O)C(O)C8O)C7OC7OC(CO)C(O)C(O)C7O)[C@@](C)(/C=N/NC(=O)CCCCCN7C(=O)C[C@H](SCCO)C7=O)C6CC[C@@]5(C)[C@]3(C)CC4O)C(OC3OC(C)C(OC4OCC(O)C(OC5OC(CO)C(O)C(O)C5O)C4O)C(O)C3O)C2O)C(O)C1OC1OCC(O)C(O)C1O (stereo partly shown) [SO1861-Ald-EMCH-blocked],CMC,[3]; [10],50 ± 5 µM
same,IC50,[6]; [12],> 100000 nM
CC(=O)OC1C(C)OC(OC2C(C)OC(OC(=O)[C@]34CCC(C)(C)CC3C3=CCC5[C@@]6(C)CC[C@H](OC7OC(C(=O)O)C(O)C(OC8OCC(O)C(O)C8O)C7OC7OC(CO)C(O)C(O)C7O)[C@@](C)(CO)C6CC[C@@]5(C)[C@]3(C)C[C@H]4O)C(OC3OC(C)C(OC4OCC(O)C(OC5OC(CO)C(O)C(O)C5O)C4O)C(O)C3O)C2O)C(O)C1OC1OCC(O)C(O)C1O (stereo partly shown) [SO1861-Ald-OH],CMC,[3]; [10],135 ± 14 µM
same,CMC compared with the corresponding native/underivatised saponin,[3],higher CMC values
same,CMC compared with the corresponding native/underivatised saponin,[3]; listed as 6,increased CMC
"Aescin [Aescin (98%), reference compound]",CMC,[3]; [13],135 ± 14 µM
CC(=O)OC1C(C)OC(OC2C(C)OC(OC(=O)[C@]34CCC(C)(C)CC3C3=CCC5[C@@]6(C)CC[C@H](OC7OC(C(=O)NC(C)(CO)CO)C(O)C(OC8OCC(O)C(O)C8O)C7OC7OC(CO)C(O)C(O)C7O)[C@@](C)(C=O)C6CC[C@@]5(C)[C@]3(C)C[C@H]4O)C(OC3OC(C)C(OC4OCC(O)C(OC5OC(CO)C(O)C(O)C5O)C4O)C(O)C3O)C2O)C(O)C1OC1OC(C)C(O)C(O)C1O (stereo partly shown) [SO1861-Glu-AMPD],CMC,[3]; [10],50 ± 5 µM
same,CMC compared with the corresponding native/underivatised saponin,[3],lower CMC values
"Aescin [Aescin (95%), reference compound]",CMC,[3]; [13],130 ± 13 µM
QS21 [reference compound],CMC,"[3]; QS saponins (Table A8, MQ)",49 µM
same,CMC,"[3]; QS saponins, determined in purified water (MQ) (Table A8)",49 ± 5 µM
same,CMC,[3]; in MQ (Table A9),49 ± 5 µM
same,CMC,"[3]; modified QS21 saponins, determined in PBS (Table A9)",40 ± 5 µM
CC(=O)OC1C(C)OC(OC2C(C)OC(OC(=O)[C@]34CCC(C)(C)CC3C3=CCC5[C@@]6(C)CC[C@H](OC7OC(C(=O)NC(C)(CO)CO)C(O)C(OC8OCC(O)C(O)C8O)C7OC7OC(CO)C(O)C(O)C7O)[C@@](C)(CO)C6CC[C@@]5(C)[C@]3(C)C[C@H]4O)C(OC3OC(C)C(OC4OCC(O)C(OC5OC(CO)C(O)C(O)C5O)C4O)C(O)C3O)C2O)C(O)C1OC1OCC(O)C(O)C1O (stereo partly shown) [SO1861-(Ald-OH)-(Glu-AMPD)],CMC,[3]; [10],50 ± 5 µM
same,CMC compared with the corresponding native/underivatised saponin,[3],lower CMC values
CC(=O)On1nnc2cccnc21 [SO1861-Glu-HATU],Cell killing activity (+ or -),[1]; [11],+
same,Cell killing activity (+ or -),[1]; [9],-
CC(=O)OC1C(C)OC(OC2C(C)OC(OC(=O)C34CCC(C)(C)CC3C3=CCC5C6(C)CCC(OC7OC(C(=O)NC(C)(CO)CO)C(O)C(OC8OCC(O)C(O)C8O)C7OC7OC(CO)C(O)C(O)C7O)C(C)(C=NNC(=O)CCCCCN7C(=O)C=CC7=O)C6CCC5(C)C3(C)CC4O)C(OC3OC(C)C(OC4OCC(O)C(OC5OC(CO)C(O)C(O)C5O)C4O)C(O)C3O)C2O)C(O)C1OC1OCC(O)C(O)C1O (stereo not shown) [SO1861-(Ald-EMCH)-(Glu-AMPD)],CMC,[3]; [10],> 30 µM
same,CMC compared with the corresponding native/underivatised saponin,[3],lower CMC values
CC[C@H](C)[C@H](C[C@H](O)CC(=O)OC1C(C)OC(OC(=O)[C@]23CCC(C)(C)CC2C2=CCC4[C@@]5(C)CC[C@H](OC6OC(C(=O)NC(C)(CO)CO)C(O)C(OC7OCC(O)C(O)C7O)C6OC6OC(CO)C(O)C(O)C6O)[C@@](C)(/C=N/NC(=O)CCCCCN6C(=O)C=CC6=O)C5CC[C@@]4(C)[C@]2(C)C[C@H]3O)C(OC2OC(C)C(OC3OCC(O)C(OC4OCC(O)(CO)C4O)C3O)C(O)C2O)C1O)OC(=O)C[C@@H](O)C[C@H](OC1OC(CO)C(O)C1O)[C@@H](C)CC (stereo partly shown) [QS21-(Ald-EMCH)-(Glu-AMPD)],IC50,"[5]; human red blood cells (Table A12, Example 8), read-out: IC50 nM (hemolysis)",> 300000 nM
same,IC50,"[5]; human red blood cells, read-out: IC50 hemolytic activity",> 300000 nM
same,HC50,[7],> 1 mM
same,IC50,[8],> 30 µM
same,IC50,"[6]; Homo sapiens, HeLa cells (Table A12, Example 8), read-out: IC50 nM (Toxicity)",> 30000 nM
same,IC50,"[6]; Homo sapiens, HeLa, saponin alone, read-out: IC50 toxicity on HeLa cells",> 30000 nM
CC(=O)OC1C(C)OC(OC2C(C)OC(OC(=O)[C@]34CCC(C)(C)CC3C3=CCC5[C@@]6(C)CC[C@H](OC7OC(C(=O)NCCN8C(=O)C=CC8=O)C(O)C(OC8OCC(O)C(O)C8O)C7OC7OC(CO)C(O)C(O)C7O)[C@@](C)(C=O)C6CC[C@@]5(C)[C@]3(C)C[C@H]4O)C(OC3OC(C)C(OC4OCC(O)C(OC5OC(CO)C(O)C(O)C5O)C4O)C(O)C3O)C2O)C(O)C1OC1OCC(O)C(O)C1O (stereo partly shown) [SO1861-Glu-AEM],CMC,[3]; [10],45 ± 5 µM
same,CMC compared with the corresponding native/underivatised saponin,[3],lower CMC values
same,IC50,[6]; [12],> 100000 nM
